We go through 3 compounds from patent US20070092546A1, “Thiamin based insect repellant” (Violet Fire, LLC, priority 2005, published 2007).

Counter-ions that a name gives are not always drawn. Like-named read-outs stand apart in the source and are kept apart here.

One data set has as its system insects. The following applies: stated without test data. An excerpt: Thiamin hydrochloride is soluble in water and glycerin and other polyhydric alcohols.
For data set [1] the following is noted: cited from earlier work.
Data set [2] relates to mosquitoes and other biting insects. The following applies: ingested doses of up to 100 mg/day for several weeks; cited from earlier work.
For data set [3] the following is noted: 100 mg/day consumed over a number of days; cited from earlier work.

On to `Cc1ncc(C[n+]2csc(CCO)c2C)c(N)n1` [Thiamin hydrochloride], for which the insect repellant properties entry with insects is given as “have insect repellant properties”. Also, the solubility entry is given as “not readily soluble” in data set [1] (in organic solvents); “soluble” in data set [1] (in water and glycerin and other polyhydric alcohols).

As to `Cc1ncc(C[n+]2csc(CCO)c2C)c(N)n1` [thiamin, Thiamin], the “insect repellency on the human skin” value in data set [2] was “will repel mosquitoes and other biting insects from the skin”. Further, in data set [3], the “adverse effects of ingestion” value was “can cause anaphylactic stock, allergic reactions and skin rashes”.

Turning to Thiamin mononitrate, the insect repellant properties entry in the data set with insects is “have insect repellant properties”.
